Results: US20240018161A1, “MODULATORS OF CYSTIC FIBROSIS TRANSMEMBRANE CONDUCTANCE REGULATOR” (VERTEX PHARMACEUTICALS INCORPORATED, priority 2020, published 2024)
Read-outs that look alike come from different tables or passages of the source.

Molecular target: CFTR-mediated chloride transport in human intestinal epithelial enteroid cells (Homo sapiens, UniProt P13569)
Assay: Membrane potential dye, Enteroid Assay A
Type: cell-based
Details: for EC50: read-out: Ent. A EC50
How it was run: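 Membrane potential dye (20 μM methyl oxonol, with 30 μM CaCCinh-A01 and 30 μM Chicago Sky Blue) loaded 25 min at room temperature into ROCK-inhibitor-seeded human enteroid cells. Chloride-free stimulation buffer triggered transport, followed by 15 min fluorescence. % Activity relative to 3 μM/3 μM/300 nM triple-combination control.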

[1] = enteroid cells incubated with test compound 18-24 hours, acute 10 μM forskolin and 300 nM N-[2,4-bis(1,1-dimethylethyl)-5-hydroxyphenyl]-1,4-dihydro-4-oxoquinoline-3-carboxamide
[2] = percentage of chloride transport of triple combination control (3 μM N-[(6-amino-2-pyridyl)sulfonyl]-6-(3-fluoro-5-isobutoxy-phenyl)-2-[(4S)-2,2,4-trimethylpyrrolidin-1-yl]pyridine-3-carboxamide based)

Chain of CFTR-mediated chloride transport in human intestinal epithelial enteroid cells (P13569 with tags, fused parts or gaps DEL508-508): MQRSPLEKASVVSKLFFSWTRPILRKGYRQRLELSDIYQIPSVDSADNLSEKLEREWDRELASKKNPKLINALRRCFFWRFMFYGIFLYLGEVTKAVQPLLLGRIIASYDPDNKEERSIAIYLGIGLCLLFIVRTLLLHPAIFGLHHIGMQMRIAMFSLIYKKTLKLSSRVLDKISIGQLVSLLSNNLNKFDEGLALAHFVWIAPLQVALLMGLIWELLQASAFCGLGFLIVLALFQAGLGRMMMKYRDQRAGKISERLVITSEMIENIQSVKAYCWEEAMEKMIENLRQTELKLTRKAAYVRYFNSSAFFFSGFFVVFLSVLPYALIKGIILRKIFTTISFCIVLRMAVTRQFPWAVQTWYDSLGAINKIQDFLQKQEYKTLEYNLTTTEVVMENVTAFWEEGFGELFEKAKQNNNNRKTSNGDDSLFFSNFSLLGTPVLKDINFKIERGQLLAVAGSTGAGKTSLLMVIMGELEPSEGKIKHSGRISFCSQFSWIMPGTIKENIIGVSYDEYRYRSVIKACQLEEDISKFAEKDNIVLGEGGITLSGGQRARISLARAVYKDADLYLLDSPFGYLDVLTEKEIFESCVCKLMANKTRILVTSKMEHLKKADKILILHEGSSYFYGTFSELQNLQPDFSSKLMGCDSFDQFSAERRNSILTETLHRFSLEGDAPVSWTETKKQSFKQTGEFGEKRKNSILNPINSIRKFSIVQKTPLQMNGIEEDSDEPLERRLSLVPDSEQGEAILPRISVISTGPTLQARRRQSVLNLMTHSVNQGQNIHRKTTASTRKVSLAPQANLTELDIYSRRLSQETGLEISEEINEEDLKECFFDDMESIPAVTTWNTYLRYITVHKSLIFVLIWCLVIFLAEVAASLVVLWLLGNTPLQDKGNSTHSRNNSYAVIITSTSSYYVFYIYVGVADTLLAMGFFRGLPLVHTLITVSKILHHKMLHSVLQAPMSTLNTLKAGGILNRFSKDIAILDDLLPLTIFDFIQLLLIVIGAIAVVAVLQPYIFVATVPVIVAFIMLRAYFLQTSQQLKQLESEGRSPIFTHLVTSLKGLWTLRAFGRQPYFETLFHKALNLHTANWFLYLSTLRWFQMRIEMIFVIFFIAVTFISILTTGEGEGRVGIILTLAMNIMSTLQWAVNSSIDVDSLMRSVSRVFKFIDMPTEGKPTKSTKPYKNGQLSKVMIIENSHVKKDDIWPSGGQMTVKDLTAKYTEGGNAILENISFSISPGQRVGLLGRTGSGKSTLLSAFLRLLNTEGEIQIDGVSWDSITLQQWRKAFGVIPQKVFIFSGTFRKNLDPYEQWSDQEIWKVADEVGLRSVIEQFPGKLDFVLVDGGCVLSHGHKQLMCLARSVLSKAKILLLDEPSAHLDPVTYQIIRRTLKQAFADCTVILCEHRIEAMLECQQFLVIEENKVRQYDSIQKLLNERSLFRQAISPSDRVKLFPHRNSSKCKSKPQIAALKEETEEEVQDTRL

| Compound | EC50 [1] | Ent. A Max Activity (%) [2] | Ent. A Max Activity (%) (Enteroid Assay A) | EC50 (Enteroid Assay A) |
| --- | --- | --- | --- | --- |
| Cc1cccc(C)c1-c1cc2nc(n1)NS(=O)(=O)c1cccc(c1)C(=O)N1CCN(CC3CCCC3)C[C@@H]1CO2 [Compound 260] | < 1 µM | +++ (+++ is >60%) | – | – |
| Cc1cccc(C)c1-c1cc2nc(n1)NS(=O)(=O)c1cccc(c1)C(=O)N1C[C@@H](CN(C3CCC(F)(F)CC3)C[C@@H]1C(C)C)O2 [Compound 146] | – | – | +++ (+++ is >600%) | < 1 µM |
| Cc1cccc(C)c1-c1cc2nc(n1)NS(=O)(=O)c1cccc(c1)C(=O)N1CCC[C@@H]1CO2 [Compound 367] | 3 to 30 µM | +++ (+++ is >60%) | – | – |
| Cc1ccc(CN2CCN3C(=O)c4cccc(c4)S(=O)(=O)Nc4nc(cc(-c5c(C)cccc5C)n4)OC[C@H]3C2)cn1 [Compound 274] | 3 to 30 µM | +++ (+++ is >60%) | – | – |
| Cc1cccc(C)c1-c1cc2nc(n1)NS(=O)(=O)c1cc(ccn1)C(=O)N1Cc3ccccc3C(C1)O2 (centres unmarked) [Compound 343] | 1 to 3 µM | ++ (++ is 30-60%) | – | – |
| Cc1cccc(C)c1-c1cc2nc(n1)NS(=O)(=O)c1cccc(c1)C(=O)N1CCN(Cc3cocn3)C[C@@H]1CO2 [Compound 283] | – | ++ (++ is 30-60%) | – | – |
| Cc1cccc(C)c1-c1cc2nc(n1)NS(=O)(=O)c1cccc(c1)C(=O)N1CCN(C[C@@H]3CC(C)(C)NC3=O)C[C@@H]1CO2 (stereo in doubt) [Compound 293] | – | + (+ is <300%) | – | – |
| Cc1cccc(C)c1-c1cc2nc(n1)NS(=O)(=O)c1cccc(c1)C(=O)N1CCN(CCC3(C(F)(F)F)CC3)C(CO2)C1 (centres unmarked) [Compound 314] | < 1 µM | +++ (+++ is >60%) | – | – |
| Cc1cccc(C)c1-c1cc2nc(n1)NS(=O)(=O)c1cccc(c1)C(=O)N1CCN(C(=O)OC(C)(C)C)[C@@H](CC(C)C)[C@H](C1)O2 [Compound 117, tert-Butyl (16S,17S)-12-(2,6-dimethylphenyl)-17-(2-methylpropyl)-2,8,8-trioxo-15-oxa-8λ^6-thia-1,9,11,18,22-pentaazatetracyclo[14.4.1.13,7.110,14]tricosa-3(23),4,6,10(22),11,13-hexaene-18-carboxylate] | – | – | +++ (+++ is >600%) | < 1 µM |
| Cc1cccc(C)c1-c1cc2nc(n1)NS(=O)(=O)c1cccc(c1)C(=O)N1CC(O2)C2CCCN(C)C2C1 (single isomer, unassigned) [Compound 202, 12-(2,6-Dimethylphenyl)-21-methyl-15-oxa-8λ^6-thia-1,9,11,21,25-pentaazapentacyclo[14.7.1.13,7.110,14.017,22]hexacosa-3,5,7(26),10(25),11,13-hexaene-2,8,8-trione] | – | – | + (+ is <30%) | – |
| Cc1cccc(C)c1-c1cc2nc(n1)NS(=O)(=O)c1cccc(c1)C(=O)N1CCN(Cc3ccccc3)CC(O2)C1CC(C)C (single isomer, unassigned) [Compound 94, 18-Benzyl-12-(2,6-dimethylphenyl)-21-(2-methylpropyl)-15-oxa-8λ^6-thia-1,9,11,18,22-pentaazatetracyclo[14.4.1.13,7.110,14]tricosa-3(23),4,6,10(22),11,13-hexaene-2,8,8-trione] | – | – | +++ (+++ is >600%) | < 1 µM |
| Cc1cccc(C)c1-c1cc2nc(n1)NS(=O)(=O)c1cccc(c1)C(=O)N1C[C@@H](CN(C3CCCC3)C[C@H]1CC(C)C)O2 [Compound 138] | – | – | ++ (++ is 30-60%) | < 1 µM |
| Cc1cccc(C)c1-c1cc2nc(n1)NS(=O)(=O)c1cccc(c1)C(=O)N1CC3CC(O2)C1C3 (centres unmarked) [Compound 365] | 3 to 30 µM | ++ (++ is 30-60%) | – | – |
| Cc1cccc(C)c1-c1cc2nc(n1)NS(=O)(=O)c1cccc(c1)C(=O)N1C[C@@H](CN(C)C[C@@H]1C(C)C)O2 [Compound 149] | – | – | +++ (+++ is >600%) | < 1 µM |
| Cc1cccc(C)c1-c1cc2nc(n1)NS(=O)(=O)c1cccc(c1)C(=O)N1CCN(Cc3ccncc3)C[C@@H]1CO2 [Compound 280] | – | ++ (++ is 30-60%) | – | – |
